In PubChem BioAssay AID248 (DTP/NCI, 2004):
“And” between values parts separate entries of the source, which are not always exact repeats. Equal values may be shown once. Toxic doses and inconclusive results are not listed. Rule as the data show it: active = T/C of 150% or more; inactive = T/C below 125%.

Tested on: L1210 leukemia ip in BDF1 mice, survival T/C
Assay: NCI In Vivo Anticancer Drug Screen. Data for tumor model L1210 Leukemia (intraperitoneal) in B6D2F1 (BDF1) mice
Conditions: endpoint: mean survival time, higher = longer survival
Method in brief: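 Mice bearing the transplanted tumor received compound or vehicle. Survival of the treated group was divided by that of the vehicle-treated control group to give the ratio.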

[1] = dose: 100.0 mg/kg/injection, schedule: Q04DX003 (ip), vehicle: Klucel (hydroxypropylcellulose) (HPC)
[2] = dose: 200.0 mg/kg/injection, schedule: Q04DX003 (ip), vehicle: Klucel (hydroxypropylcellulose) (HPC)
[3] = dose: 400.0 mg/kg/injection, schedule: Q04DX003 (ip), vehicle: Klucel (hydroxypropylcellulose) (HPC)
[4] = dose: 100.0 mg/kg/injection, schedule: Q01DX009 (ip), vehicle: saline with Tween-80
[5] = dose: 200.0 mg/kg/injection, schedule: Q01DX009 (ip), vehicle: saline with Tween-80
[6] = dose: 50.0 mg/kg/injection, schedule: Q01DX009 (ip), vehicle: Klucel (hydroxypropylcellulose) (HPC)
[7] = dose: 100.0 mg/kg/injection, schedule: Q01DX009 (ip), vehicle: Klucel (hydroxypropylcellulose) (HPC)
[8] = dose: 200.0 mg/kg/injection, schedule: Q01DX009 (ip), vehicle: Klucel (hydroxypropylcellulose) (HPC)
[9] = dose: 400.0 mg/kg/injection, schedule: Q01DX009 (ip), vehicle: Klucel (hydroxypropylcellulose) (HPC)
[10] = dose: 100.0 mg/kg/injection, schedule: Q01DX001 (ip), vehicle: saline
[11] = dose: 200.0 mg/kg/injection, schedule: Q01DX001 (ip), vehicle: saline
[12] = dose: 400.0 mg/kg/injection, schedule: Q01DX001 (ip), vehicle: saline
[13] = dose: 100.0 mg/kg/injection, schedule: Q01DX009 (ip), vehicle: saline
[14] = dose: 100.0 mg/kg/injection, schedule: Q04DX003 (ip), vehicle: saline
[15] = dose: 200.0 mg/kg/injection, schedule: Q01DX009 (ip), vehicle: saline
[16] = dose: 200.0 mg/kg/injection, schedule: Q04DX003 (ip), vehicle: saline
[17] = dose: 400.0 mg/kg/injection, schedule: Q04DX003 (ip), vehicle: saline
[18] = dose: 75.0 mg/kg/injection, schedule: Q01DX001 (ip), vehicle: saline
[19] = dose: 100.0 mg/kg/injection, schedule: Q01DX001 (ip), vehicle: carboxymethylcellulose (CMC)
[20] = dose: 200.0 mg/kg/injection, schedule: Q01DX001 (ip), vehicle: carboxymethylcellulose (CMC)
[21] = dose: 400.0 mg/kg/injection, schedule: Q01DX001 (ip), vehicle: carboxymethylcellulose (CMC)

Measured: T/C

CCCCC(CC)COP(=S)(S)OCC(CC)CCCC.[Sn] (stereo unspecified)
inactive: [1] 100 % of control | [2] 99 % of control | [3] 96 % of control

c1ccc2c(c1)CCc1c-2[nH]c2ccccc12
inactive: [4] 96 % of control | [5] 94 % of control

CN(C)N=Nc1ccccc1C#N
inactive: [6] 103 % of control | [7] 108 % of control | [1] 112 % of control | [8] 113 % of control | [2] 113 % of control | [9] 105 % of control and 120 % of control | [3] 107 % of control

O=c1cc(/C=C/c2ccc3ccccc3n2)c2ccccc2[nH]1
inactive: [10] 98 % of control | [11] 96 % of control | [12] 102 % of control

CCN(C(=O)/C=C/c1ccccc1)C1CCCCC1
inactive: [7] 94 % of control | [1] 102 % of control | [8] 102 % of control | [2] 96 % of control | [9] 86 % of control | [3] 105 % of control

CC1(C2CC2)NC(=O)NC1=O (stereo unspecified)
inactive: [13] 97 % of control | [14] 92 % of control | [15] 89 % of control | [16] 97 % of control | dose: 400.0 mg/kg/injection, schedule: Q01DX009 (ip), vehicle: saline 95 % of control | [17] 95 % of control

O=C(N=C1C=CC(=NC(=O)c2ccccc2)C=C1)c1ccccc1
inactive: dose: 75.0 mg/kg/injection, schedule: Q04DX003 (ip), vehicle: Klucel (hydroxypropylcellulose) (HPC) 87 % of control | dose: 150.0 mg/kg/injection, schedule: Q04DX003 (ip), vehicle: Klucel (hydroxypropylcellulose) (HPC) 92 % of control | dose: 300.0 mg/kg/injection, schedule: Q04DX003 (ip), vehicle: Klucel (hydroxypropylcellulose) (HPC) 87 % of control

Cc1ccc(NC(=O)c2ccc(Cl)cc2Cl)cc1Cl
inactive: [7] 96 % of control | [1] 104 % of control | [8] 91 % of control | [2] 97 % of control | [9] 94 % of control | [3] 95 % of control

O=[N+]([O-])c1cccc(S(=O)(=O)NNc2c(Cl)cc(Cl)cc2Cl)c1
inactive: [1] 94 % of control | [2] 93 % of control | [3] 96 % of control

O=C1C=C(N2CCCC2)CCC1
inactive: [18] 107 % of control | dose: 150.0 mg/kg/injection, schedule: Q01DX001 (ip), vehicle: saline 109 % of control

CCC(C1=CCCCC1)c1nc2c([nH]1)c(=O)n(C)c(=O)n2C (stereo unspecified)
inactive: dose: 50.0 mg/kg/injection, schedule: Q01DX001 (ip), vehicle: other 101 % of control | dose: 100.0 mg/kg/injection, schedule: Q01DX001 (ip), vehicle: other 90 % of control | dose: 200.0 mg/kg/injection, schedule: Q01DX001 (ip), vehicle: other 90 % of control | dose: 400.0 mg/kg/injection, schedule: Q01DX001 (ip), vehicle: other 97 % of control

Cc1ccc([P+](Cc2ccc(Cl)cc2Cl)(c2ccc(C)cc2)c2ccc(C)cc2)cc1
inactive: dose: 6.25 mg/kg/injection, schedule: Q04DX003 (ip), vehicle: Klucel (hydroxypropylcellulose) (HPC) 103 % of control | dose: 12.5 mg/kg/injection, schedule: Q04DX003 (ip), vehicle: Klucel (hydroxypropylcellulose) (HPC) 92 % of control

COc1ccc(NC(Nc2ccc(OC)cc2)C(Cl)(Cl)Cl)cc1
inactive: dose: 100.0 mg/kg/injection, schedule: Q01DX009 (ip), vehicle: other 90 % of control | dose: 100.0 mg/kg/injection, schedule: Q04DX003 (ip), vehicle: other 87 % of control | dose: 200.0 mg/kg/injection, schedule: Q01DX009 (ip), vehicle: other 93 % of control | dose: 200.0 mg/kg/injection, schedule: Q04DX003 (ip), vehicle: other 97 % of control | dose: 400.0 mg/kg/injection, schedule: Q01DX009 (ip), vehicle: other 123 % of control | dose: 400.0 mg/kg/injection, schedule: Q04DX003 (ip), vehicle: other 114 % of control

C=CC1CC=CCC1 (stereo unspecified) (tested in a mixture with another compound)
inactive: dose: 50.0 mg/kg/injection, schedule: Q01DX001 (ip), vehicle: carboxymethylcellulose (CMC) 98 % of control | [19] 98 % of control | [20] 98 % of control | [21] 108 % of control

Cc1ccc(NC(=O)/C=C/c2ccccc2)cc1Cl
inactive: [7] 95 % of control | [8] 98 % of control | [9] 104 % of control

CC(=O)OCC(=O)c1cc(OC(C)=O)c(OC(C)=O)c(OC(C)=O)c1
inactive: [10] 91 % of control | [12] 94 % of control

O=[N+]([O-])c1ccc2[nH]c(=S)sc2c1
inactive: dose: 25.0 mg/kg/injection, schedule: Q01DX009 (ip), vehicle: Klucel (hydroxypropylcellulose) (HPC) 95 % of control | [6] 95 % of control

N#CC(=C1c2ccccc2-c2ccccc21)c1ccccc1
inactive: [1] 100 % of control | [2] 105 % of control | [3] 98 % of control

CSCCc1ccccn1
inactive: dose: 50.0 mg/kg/injection, schedule: Q01DX001 (ip), vehicle: saline 98 % of control | [10] 104 % of control | [11] 98 % of control | [12] 110 % of control

O=C(OC12CCN(CC1)CC2)c1ccccc1
inactive: dose: 9.5 mg/kg/injection, schedule: Q01DX001 (ip), vehicle: saline 95 % of control | dose: 19.0 mg/kg/injection, schedule: Q01DX001 (ip), vehicle: saline 95 % of control

C(=NC1CCCCC1)=NC1CCCCC1
inactive: dose: 2.5 mg/kg/injection, schedule: Q04DX003 (ip), vehicle: Klucel (hydroxypropylcellulose) (HPC) 105 % of control | dose: 5.0 mg/kg/injection, schedule: Q04DX003 (ip), vehicle: Klucel (hydroxypropylcellulose) (HPC) 105 % of control | dose: 10.0 mg/kg/injection, schedule: Q04DX003 (ip), vehicle: Klucel (hydroxypropylcellulose) (HPC) 106 % of control

CCOC(=O)C(=O)CC1=NC2CCCCC2N(C)C1=O (stereo unspecified)
inactive: dose: 50.0 mg/kg/injection, schedule: Q01DX009 (ip), vehicle: saline 93 % of control | [13] 90 % of control | [15] 90 % of control

CN1CCC(CSC(=O)C(O)(c2ccccc2)C2CCCCC2)C1 (stereo unspecified)
inactive: [18] 97 % of control

Nc1nc2c(ncn2CCC(N)C(=O)O)c(=O)[nH]1 (stereo unspecified)
inactive: [14] 104 % of control | [16] 98 % of control | [17] 107 % of control

COc1ccc(N2CCN(c3c(N)cnc4ccccc34)CC2)c(OC)c1
inactive: [19] 97 % of control | [20] 103 % of control | [21] 97 % of control

CCOC(=O)c1c(OC)cc2n(c1=O)Cc1cc3ccccc3nc1-2
inactive: dose: 150.0 mg/kg/injection, schedule: Q01DX009 (ip), vehicle: saline with Tween-80 86 % of control | dose: 225.0 mg/kg/injection, schedule: Q01DX009 (ip), vehicle: saline with Tween-80 89 % of control | dose: 335.0 mg/kg/injection, schedule: Q01DX009 (ip), vehicle: saline with Tween-80 89 % of control

COc1ccc(F)cc1CC(=O)O
inactive: dose: 100.0 mg/kg/injection, schedule: Q04DX002 (ip), vehicle: Klucel (hydroxypropylcellulose) (HPC) 102 % of control and 105 % of control | dose: 200.0 mg/kg/injection, schedule: Q04DX002 (ip), vehicle: Klucel (hydroxypropylcellulose) (HPC) 98 % of control and 105 % of control | dose: 400.0 mg/kg/injection, schedule: Q04DX002 (ip), vehicle: Klucel (hydroxypropylcellulose) (HPC) 91 % of control and 96 % of control

NC(=O)C1CCC(C(N)=O)CC1 (stereo unspecified)
inactive: dose: 100.0 mg/kg/injection, schedule: Q01DX001 (ip), vehicle: saline with Tween-80 106 % of control | [4] 100 % of control | dose: 100.0 mg/kg/injection, schedule: Q04DX003 (ip), vehicle: saline with Tween-80 100 % of control | dose: 200.0 mg/kg/injection, schedule: Q01DX001 (ip), vehicle: saline with Tween-80 98 % of control | [5] 100 % of control | dose: 200.0 mg/kg/injection, schedule: Q04DX003 (ip), vehicle: saline with Tween-80 115 % of control | dose: 400.0 mg/kg/injection, schedule: Q01DX001 (ip), vehicle: saline with Tween-80 98 % of control | dose: 400.0 mg/kg/injection, schedule: Q01DX009 (ip), vehicle: saline with Tween-80 107 % of control | dose: 400.0 mg/kg/injection, schedule: Q04DX003 (ip), vehicle: saline with Tween-80 102 % of control
